From US11180462B2, “Microbiocidal oxadiazole derivatives” (SYNGENTA PARTICIPATIONS AG, priority 2015, dated 2021)

Legend:
[1] = tested on: Glomerella lagenarium (Colletotrichum lagenarium); experiment: Fungicidal activity against Glomerella lagenarium (Colletotrichum lagenarium) liquid culture / cucumber / preventative (anthracnose); format: cell-based; details: Colletotrichum orbiculare; 20 ppm in the applied formulation; liquid culture (PDB), growth inhibition measured photometrically after 3 to 4 days; compared to untreated control; read-out: disease control
How it was run: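 Photometric read-out of fungal growth after 2–7 days, expressed as percent antifungal activity versus untreated check. Cryo-stored conidia in PDB; compound at 20 ppm; dark, 24 °C, 96% RH.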

[2] = tested on: Puccinia recondita f. Sp. Tritici; experiment: Fungicidal activity against Puccinia recondita f. sp. tritici / wheat / leaf disc curative (brown rust); format: in vivo; details: foliar, 24 h, 200 ppm in the applied formulation, wheat leaf segments, curative (applied 1 day after inoculation), compared to untreated control leaf disks, read-out: disease control
How it was run: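 % disease control vs untreated, scored 6–8 d post-application. Wheat cv. Kanzler segments, spore-inoculated, dark 19° C/75% RH; formulated cpd applied 1 d post-inoc; then 19° C, 75% RH, 12 h L/12 h D.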

Phakopsora Pachyrhizi = experiment: Fungicidal activity against Phakopsora pachyrhizi / soybean / leaf disc preventative (Asian soybean rust); format: in vivo; details: foliar, 200 ppm in the applied formulation, soybean leaf disks, compared to untreated control leaf disks, read-out: disease control
How it was run: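 Preventative soybean leaf-disc test: discs on water agar sprayed with diluted formulated compound, inoculated one day later with spores on the lower surface. Held 24–36 h dark at 20°C, 75% rh, then 12 h light/day; percent disease control versus untreated discs scored 12–14 days after application.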

[3] = tested on: Puccinia recondita f. Sp. Tritici; experiment: Fungicidal activity against Puccinia recondita f. sp. tritici / wheat / leaf disc preventative (brown rust); format: in vivo; details: foliar, 200 ppm in the applied formulation, wheat leaf segments, preventative, compared to untreated control leaf disks, read-out: disease control
How it was run: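 Compound application precedes infection: segments of wheat cv. Kanzler, sprayed at 200 ppm, are inoculated with a spore suspension after 1 day. Incubation is at 19° C. with 75% relative humidity and 12 h light/12 h darkness, and control versus untreated leaves is rated 7 to 9 days post-application.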

CN(C(=O)C1CC1)C(C#N)c1ccc(-c2noc(C(F)(F)F)n2)cc1 (stereo not shown) [Compound 1.612, N-[cyano-[4-[5-(trifluoromethyl)-1,2,4-oxadiazol-3-yl]phenyl]methyl)-N-methyl-cyclopropane-carboxamide]
≥ 80%: inhibition of growth at 20 ppm [1] | pest or weed control at 200 ppm [2] | pest or weed control at 200 ppm (Phakopsora Pachyrhizi) | pest or weed control at 200 ppm [3]

COCCN(Cc1ccc(-c2noc(C(F)(F)F)n2)cc1)C(=O)C1(C#N)CC1 [Compound 1.356, 1-cyano-N-(2-methoxyethyl)-N-[[4-[5-(trifluoromethyl)-1,2,4-oxadiazol-3-yl]phenyl]methyl]-cyclopropane-carboxamide]
≥ 80%: inhibition of growth at 20 ppm [1] | pest or weed control at 200 ppm [2] | pest or weed control at 200 ppm (Phakopsora Pachyrhizi) | pest or weed control at 200 ppm [3]

CC(=O)N(Cc1ccc(-c2noc(C(F)(F)F)n2)cc1)CC(F)(F)F [Compound 1.705, N-(2,2,2-trifluoroethyl)-N-[[4-[5-(trifluoromethyl)-1,2,4-oxadiazol-3-yl]phenyl]methyl]-acetamide]
≥ 80%: inhibition of growth at 20 ppm [1] | pest or weed control at 200 ppm [2] | pest or weed control at 200 ppm (Phakopsora Pachyrhizi) | pest or weed control at 200 ppm [3]

COCCCC(=O)N(CCO)Cc1ccc(-c2noc(C(F)(F)F)n2)cc1 [Compound 1.724, N-(2-hydroxyethyl)-4-methoxy-N-[[4-[5-(trifluoromethyl)-1,2,4-oxadiazol-3-yl]phenyl]methyl]-butanamide]
≥ 80%: inhibition of growth at 20 ppm [1] | pest or weed control at 200 ppm [2] | pest or weed control at 200 ppm (Phakopsora Pachyrhizi) | pest or weed control at 200 ppm [3]

COCCC(=O)N(C)Cc1ccc(-c2noc(C(F)(F)F)n2)cc1 [Compound 1.516, 3-methoxy-N-methyl-N-[[4-[5-(trifluoromethyl)-1,2,4-oxadiazol-3-yl]phenyl]methyl]-propanamide]
≥ 80%: inhibition of growth at 20 ppm [1] | pest or weed control at 200 ppm [2] | pest or weed control at 200 ppm (Phakopsora Pachyrhizi) | pest or weed control at 200 ppm [3]

CCC(C)NC(=O)N(Cc1ccc(-c2noc(C(F)(F)F)n2)cc1)OC (stereo not shown) [Compound 3.9, 1-methoxy-3-sec-butyl-1-[[4-[5-(trifluoromethyl)-1,2,4-oxadiazol-3-yl]phenyl]methyl]urea]
≥ 80%: inhibition of growth at 20 ppm [1] | pest or weed control at 200 ppm [2] | pest or weed control at 200 ppm (Phakopsora Pachyrhizi) | pest or weed control at 200 ppm [3]

COCC(=O)N(OC)C(C)c1ccc(-c2noc(C(F)(F)F)n2)cc1 (stereo not shown) [Compound 1.253, N,2-dimethoxy-N-(1-[4-[5-(trifluoromethyl)-1,2,4-oxadiazol-3-yl]phenyl]ethyl]-acetamide]
≥ 80%: inhibition of growth at 20 ppm [1] | pest or weed control at 200 ppm [2] | pest or weed control at 200 ppm (Phakopsora Pachyrhizi) | pest or weed control at 200 ppm [3]

CC1(C(=O)N(Cc2ccc(-c3noc(C(F)(F)F)n3)cc2)C2CC2)COC1 [Compound 1.128, N-cyclopropyl-3-methyl-N-[[4-[5-(trifluoromethyl)-1,2,4-oxadiazol-3-yl]phenyl]methyl]-oxetane-3-carboxamide]
≥ 80%: inhibition of growth at 20 ppm [1] | pest or weed control at 200 ppm [2] | pest or weed control at 200 ppm (Phakopsora Pachyrhizi) | pest or weed control at 200 ppm [3]

O=C(N(Cc1ccc(-c2noc(C(F)(F)F)n2)cc1)C1CC1)C1(C(F)(F)F)CCC1 [Compound 1.92, N-cyclopropyl-1-(trifluoromethyl)-N-[[4-[5-(trifluoromethyl)-1,2,4-oxadiazol-3-yl]phenyl]methyl]-cyclobutane-carboxamide]
≥ 80%: inhibition of growth at 20 ppm [1] | pest or weed control at 200 ppm [2] | pest or weed control at 200 ppm (Phakopsora Pachyrhizi) | pest or weed control at 200 ppm [3]

CC(C)C(NC(=O)C1CC1)C(=O)N(Cc1ccc(-c2noc(C(F)(F)F)n2)cc1)C1CC1 (stereo not shown) [Compound 1.132, N-[1-[cyclopropyl-[[4-[5-(trifluoromethyl)-1,2,4-oxadiazol-3-yl]phenyl]methyl]-carbamoyl]-2-methyl-propyl]-cyclopropane-carboxamide]
≥ 80%: inhibition of growth at 20 ppm [1] | pest or weed control at 200 ppm [2] | pest or weed control at 200 ppm (Phakopsora Pachyrhizi) | pest or weed control at 200 ppm [3]

CC(C)N(Cc1ccc(-c2noc(C(F)(F)F)n2)cc1)C(=O)C1(C)CC1 [Compound 1.677, N-isopropyl-1-methyl-N-[[4-[5-(trifluoromethyl)-1,2,4-oxadiazol-3-yl]phenyl]methyl]-cyclopropane-carboxamide]
≥ 80%: inhibition of growth at 20 ppm [1] | pest or weed control at 200 ppm [2] | pest or weed control at 200 ppm (Phakopsora Pachyrhizi) | pest or weed control at 200 ppm [3]

C=C(C)C(=O)N(CCOC)Cc1ccc(-c2noc(C(F)(F)F)n2)cc1 [Compound 1.346, N-(2-methoxyethyl)-2-methyl-N-[[4-[5-(trifluoromethyl)-1,2,4-oxadiazol-3-yl]phenyl]methyl]prop-2-enamide]
≥ 80%: inhibition of growth at 20 ppm [1] | pest or weed control at 200 ppm [2] | pest or weed control at 200 ppm (Phakopsora Pachyrhizi) | pest or weed control at 200 ppm [3]

CCCON(Cc1ccc(-c2noc(C(F)(F)F)n2)cc1)C(=O)C1CC1F (stereo not shown) [Compound 1.315, 2-fluoro-N-propoxy-N-[[4-[5-(trifluoromethyl)-1,2,4-oxadiazol-3-yl]phenyl]methyl]-cyclopropane-carboxamide]
≥ 80%: inhibition of growth at 20 ppm [1] | pest or weed control at 200 ppm [2] | pest or weed control at 200 ppm (Phakopsora Pachyrhizi) | pest or weed control at 200 ppm [3]

CON(Cc1ccc(-c2noc(C(F)(F)F)n2)cc1)C(=O)NC(C)(C)C [Compound 3.19, 3-tert-butyl-1-methoxy-1-[[4-[5-(trifluoromethyl)-1,2,4-oxadiazol-3-yl]phenyl]methyl]urea]
≥ 80%: inhibition of growth at 20 ppm [1] | pest or weed control at 200 ppm [2] | pest or weed control at 200 ppm (Phakopsora Pachyrhizi) | pest or weed control at 200 ppm [3]

CCCN(Cc1ccc(-c2noc(C(F)(F)F)n2)cc1)C(=O)C1(C)CC1 [Compound 1.658, 1-methyl-N-propyl-N-[[4-[5-(trifluoromethyl)-1,2,4-oxadiazol-3-yl]phenyl]methyl]-cyclopropane-carboxamide]
≥ 80%: inhibition of growth at 20 ppm [1] | pest or weed control at 200 ppm [2] | pest or weed control at 200 ppm (Phakopsora Pachyrhizi) | pest or weed control at 200 ppm [3]

CN(Cc1ccc(-c2noc(C(F)(F)F)n2)cc1)C(=O)COC(F)F [Compound 1.595, 2-(difluoromethoxy)-N-methyl-N-[[4-[5-(trifluoromethyl)-1,2,4-oxadiazol-3-yl]phenyl]methyl]-acetamide]
≥ 80%: inhibition of growth at 20 ppm [1] | pest or weed control at 200 ppm [2] | pest or weed control at 200 ppm (Phakopsora Pachyrhizi) | pest or weed control at 200 ppm [3]
